These results are taken from paper PMC4706797 (Journal of pharmaceutical sciences, 2015).

One series concerns cyclin D1. Put plainly: Western blot, cyclin D1 expression in MDA-MB-231 cells. It is filed as cell-based. Particulars: MDA-MB-231, DTX 0.1 μM and/or 1 μM PPL, 48 hr, densitometry.
The next series relates to survivin. Put plainly: Western blot, survivin expression in MDA-MB-231 cells. The format is cell-based. Particulars: MDA-MB-231, DTX 0.1 μM and/or 1 μM PPL, 48 hr, densitometry. A general note: Immunoblotting shows a protein as a band on a membrane.
The next series has as its system HCC1806. Put plainly: Cytotoxicity assay. The format is cell-based. Particulars: Homo sapiens, HCC1806, 48 h, read-out: IC50 (μM) DTX only.
For another series, the system named is p53. The experiment in a line: Western blot, p53 expression in MDA-MB-231 cells. It is filed as cell-based. Particulars: MDA-MB-231, DTX 0.1 μM and/or 1 μM PPL, 48 hr, densitometry.
The test system of a further series is MDA-MB-231 cells. The experiment in a line: In vitro migration. The format is cell-based.
A further series concerns HS578T. Put plainly: Cytotoxicity assay. The format is cell-based. Particulars: Homo sapiens, Hs-578T, 48 h, read-out: IC50 (μM) DTX only.
For the next series, the system named is Bcl-2. Put plainly: Western blot, Bcl-2 expression in MDA-MB-231 cells. The format is cell-based. The note with it: MDA-MB-231, DTX 0.1 μM and/or 1 μM PPL, 48 hr, densitometry.
The next series concerns MDA-MB-231. Put plainly: Cytotoxicity assay. The format is cell-based. The note with it: Homo sapiens, MDA-MB-231, 48 h, read-out: IC50 (μM) DTX only.
The next series deals with HCC70. The experiment in a line: Cytotoxicity assay. It is filed as cell-based. Particulars: Homo sapiens, HCC70, 48 h, read-out: IC50 (μM) DTX only.
The subject of the next series is MDA-MB-468. Put plainly: Cytotoxicity assay. It is filed as cell-based. Particulars: Homo sapiens, MDA-MB-468, 48 h, read-out: IC50 (μM) DTX only.
A short description of series [1]: In vivo pharmacokinetic in rats. Set-up: species or system Sprague Dawley rats.
For a further series, the target named is P-gp (Homo sapiens, UniProt P08183). Put plainly: Caco-2 uptake study of P-gp substrates. Particulars: Caco-2 cells, 50 μM PPL or verapamil.
Chain of P-gp (P08183 whole entry): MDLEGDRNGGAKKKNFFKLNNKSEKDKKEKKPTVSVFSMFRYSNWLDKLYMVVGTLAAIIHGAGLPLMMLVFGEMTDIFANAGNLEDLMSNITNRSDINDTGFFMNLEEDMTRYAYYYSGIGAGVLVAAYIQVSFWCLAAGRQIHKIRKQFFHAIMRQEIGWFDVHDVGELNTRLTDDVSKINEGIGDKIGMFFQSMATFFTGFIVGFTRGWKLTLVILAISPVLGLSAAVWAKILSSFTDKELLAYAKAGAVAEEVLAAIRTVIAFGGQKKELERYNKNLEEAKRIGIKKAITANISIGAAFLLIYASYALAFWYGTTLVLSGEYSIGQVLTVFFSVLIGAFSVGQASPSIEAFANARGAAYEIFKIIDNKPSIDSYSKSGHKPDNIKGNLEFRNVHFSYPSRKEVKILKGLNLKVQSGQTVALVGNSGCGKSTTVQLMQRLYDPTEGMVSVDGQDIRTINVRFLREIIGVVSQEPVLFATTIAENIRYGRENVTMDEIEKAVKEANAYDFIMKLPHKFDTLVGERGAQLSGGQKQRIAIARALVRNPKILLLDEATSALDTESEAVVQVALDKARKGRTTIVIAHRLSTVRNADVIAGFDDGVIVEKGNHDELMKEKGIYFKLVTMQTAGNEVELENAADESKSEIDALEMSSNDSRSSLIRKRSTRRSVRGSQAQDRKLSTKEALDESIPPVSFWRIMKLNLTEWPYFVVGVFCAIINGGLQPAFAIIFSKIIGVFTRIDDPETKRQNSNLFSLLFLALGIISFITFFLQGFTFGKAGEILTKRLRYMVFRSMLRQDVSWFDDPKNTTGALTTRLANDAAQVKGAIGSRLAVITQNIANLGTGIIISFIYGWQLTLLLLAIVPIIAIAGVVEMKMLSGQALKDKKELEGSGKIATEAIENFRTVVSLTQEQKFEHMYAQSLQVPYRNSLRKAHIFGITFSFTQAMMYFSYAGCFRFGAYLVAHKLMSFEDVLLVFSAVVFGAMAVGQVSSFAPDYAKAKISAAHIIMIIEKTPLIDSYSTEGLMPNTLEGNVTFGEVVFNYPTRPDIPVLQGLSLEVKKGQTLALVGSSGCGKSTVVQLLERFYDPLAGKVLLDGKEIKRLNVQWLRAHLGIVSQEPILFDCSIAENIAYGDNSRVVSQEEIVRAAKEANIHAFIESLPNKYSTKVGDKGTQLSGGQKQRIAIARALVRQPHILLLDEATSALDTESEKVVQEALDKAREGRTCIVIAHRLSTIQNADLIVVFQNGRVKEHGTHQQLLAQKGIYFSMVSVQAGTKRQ
Series [2] concerns triple negative breast cancer (TNBC) cell lines. Put plainly: Cytotoxicity in TNBC cell lines. It is filed as cell-based.
The test system of another series is CYP3A4. The note with it: 50 μM PPL or CYA, 5 μM TST, human liver microsomes, over 60 min.
For series [3] the following is noted: oral co-administration with the taxane; cited from earlier work.
Setting [4] is: Sprague Dawley, rat, plasma, iv, 5 mg/kg.

A word on the IC50: it is the concentration needed to halve the response being measured. As usually defined, the AUC is the area under the concentration-time curve, a measure of exposure. A low value points to less exposure. A word on the Cmax: it is the maximum level reached in the sampled fluid or tissue. The MRT is a mean duration of stay, worked out from the concentration-time curve. By half-life is commonly meant the time in which the quantity being followed falls by half. Low readings indicate rapid decline, high ones slow decline. Consider `CC(=O)O[C@@]12CO[C@@H]1C[C@H](O)[C@@]1(C)C(=O)[C@H](O)C3=C(C)[C@@H](OC(=O)[C@H](O)[C@@H](NC(=O)OC(C)(C)C)c4ccccc4)C[C@@](O)([C@@H](OC(=O)c4ccccc4)[C@H]21)C3(C)C` [DTX, Docetaxel], for which, in the series on cyclin D1, the “cyclin D1 relative expression reduced compared to untreated control” value was 0.8 fold. The “survivin expression down regulated compared to control” value in the series with survivin is listed as 1.03 fold. Moreover, the IC50 came to 0.0022 ± 0.001 µM in the series on HCC1806; 0.077 ± 0.013 µM in the series with HS578T; 0.458 ± 0.081 µM with MDA-MB-231; 0.019 ± 0.008 µM with HCC70; 0.36 ± 0.069 µM in the series on MDA-MB-468. Further, in the series with p53, the “increase in expression of p53 compared to untreated control” value came out at 1.2 fold. The “percent bridging of scratch area” value came to 49.3% with MDA-MB-231 cells (MDA-MB-231, 48 h, 0.1 μM DTX (combination with 1 μM PPL)) and 33.8% in the series with MDA-MB-231 cells (MDA-MB-231, 48 h, 0.4 μM DTX (combination with 1 μM PPL)). Moreover, the “Bcl-2 expression reduced compared to untreated control” value with Bcl-2 was 2.59 fold. Besides, in series [1] (SD rats, oral DTX 10 mg/kg (PPL 50 mg/kg where co-administered) vs IV 5 mg/kg), the “Absolute BA” value worked out at 9.26%. Further, the “time after which DTX plasma concentration was non-detectable” value in series [1] (SD rats, oral administration) turned out to be 8 h. In addition, the AUC in series [1] (setting [4]) was 5290 ± 1100 ng·h/mL. In [1] (setting [4]), this compound displayed a Cmax of 6100 ± 1700 ng/mL. The same compound registered an MRT in [1] (setting [4]) of 1.99 ± 0.36 h. In series [1] (setting [4]), this compound showed a half-life of 6.67 ± 1.6 h.

For the compound `COc1cc(/C=C/C(=O)N2CCC=CC2=O)cc(OC)c1OC` [PPL, Piperlongumine], in the series on cyclin D1, the “cyclin D1 relative expression reduced compared to untreated control” value is 2.10 fold. Besides, the “survivin expression down regulated compared to control” value in the series with survivin worked out at 1.19 fold. In addition, the “increase in expression of p53 compared to untreated control” value in the series on p53 is given as 1.1 fold. Also, the “intracellular uptake of R123 (green fluorescence intensity)” value on P-gp (1 μM rhodamine 123, 90 min, qualitative) was “green fluorescence intensity was higher”. Moreover, the “higher intracellular accumulation (uptake) of DTX” value on P-gp (5 μM DTX, 90 min) came to 1.34 fold. In the series on MDA-MB-231 cells (MDA-MB-231, 48 h, 1 μM PPL alone), the “percent bridging of migration area” value is “comparable to control”. Also, in the series on MDA-MB-231 cells (PPL at concentration below 4 μM), the anti-migration effect entry is reported as “no anti-migration effect”. The “Bcl-2 expression reduced compared to untreated control” value in the series with Bcl-2 came to 2.74 fold. In series [2] (PPL at 1 μM), the cytotoxicity result is recorded as “no cytotoxcity”. In addition, the cell killing result in [2] (PPL below 4 μM) was “not shown a significant cell killing”. The “reduction in TST metabolism” value in the series with CYP3A4 was around 50%.

Consider `O=C(/C=C/C=C/c1ccc2c(c1)OCO2)N1CCCCC1` [piperine], for which the “anticancer and synergistic effect with docetaxel” value in series [2] (in vitro studies, data not shown) is “did not show potent anticancer and synergistic effect”.

Turning to `CC(C)c1nc(CN(C)C(=O)N[C@H](C(=O)N[C@@H](Cc2ccccc2)C[C@H](O)[C@H](Cc2ccccc2)NC(=O)OCc2cncs2)C(C)C)cs1` [ritonavir], in series [3], the “increase in plasma concentrations of docetaxel” value is 7.3 fold and the “increase in plasma concentrations of paclitaxel” value is recorded as 2.5 fold.
